Assays:
[1] = tested on: human lung cancer cell line H460; assay: LDH analysis (membrane integrity) of H460 cancer cells; type: cell-based; conditions: H460, 3 days
Description: (§1) Cancer Cell Culture. The mouse liver cancer cell line BNLT3 (gift of Dr. Jack Wands, Brown University) and the human lung cancer cell line H460 (ATCC) were seeded into 96-well plates at a density of 4,000 cells/well and cultured at 37° C., 5% CO2, in DMEM (11965, Gibco) supplemented with 10% fetal bovine serum, 20 mM HEPES, 1 mM sodium pyruvate, and […] gentamycin (all reagents came from Gibco).
(§2) Cell Insults and Treatments. Determination of concentration for each anticancer drug in our experiments was based on its reported concentration in human cerebral spinal fluid (CSF) in chemotherapy, literature report of its neurotoxicity in culture, and our preliminary in vitro experimental data. […] For ROS examination, the neurons were insulted with both 100 μM of MTX and 25 μM of 5-FU by 15 d.i.v. PAN-811.Cl.H2O was added to cultures to final concentrations of 1.25, 2.5, 5, and 10 μM at the same time as addition of the anticancer drugs.
(§3) Quantitative Assays and Morphological Assessment. Cell membrane integrity and mitochondrial function of either neurons or cancer cells were measured with LDH and 3-(4,5-dimethylthiazol-2-yl)-5-(3-carboxymethoxyphenyl)-2-(4-sulfophenyl)-2H-tetrazolium [MTS] analyses, respectively. The latter has been used to quantify cell survival. For the LDH assay, a mixture of a 35 μL aliquot of culture supernatant and 17.5 μL of Mixed Substrate, Enzyme and Dye Solutions (Sigma) was incubated at room temperature (RT) for 30 minutes. For the MTS assay, 10 μL of MTS reagent (Promega) was added to a culture well containing neurons in 50 μL of medium. The preparations were incubated at 37° C. for 2 hours. The preparations for both assays were then spectrophotometrically measured at 490 nm using a 96-well plate reader (Mode 550, Bio-Rad). Neuronal cell death was morphologically determined based on the integrity of the cell soma and continuity of neuronal processes. The change in number of cancer cells was judged directly by cell density. Cells were photographed under an inverted phase contrast microscope (IX 70, Olympus) using 10× or 20× objective.
Data Analysis. Data were generated from 4-6 replicate wells, expressed as mean±standard deviation (SD), and statistically evaluated at a significance level of […] with one factor ANOVA or Student's t-test by using software […] (http://vassarstats.net/) followed by the Tukey HSD test. Figure symbols are as follows: #, P<0.05, and ##, P<0.01, compared with control; *, P<0.05, and **, P<0.01, compared with the insulted group; §§, P<0.01, compared with PAN-811 treated group by Student's t-test.

[2] = tested on: human lung cancer cell line H460; assay: MTS analysis of H460 cancer cells; type: cell-based; conditions: H460, 3 days; 3.5 μM CDDP, 10 μM PAN-811 or both; FIG. 5(d)
Description: as §1
Cell Insults and Treatments. Determination of concentration for each anticancer drug in our experiments was based on its reported concentration in human cerebral spinal fluid (CSF) in chemotherapy, literature report of its neurotoxicity in culture, and our preliminary in vitro experimental data. […]
(§4) Quantitative Assays and Morphological Assessment. Cell membrane integrity and mitochondrial function of either neurons or cancer cells were measured with LDH and 3-(4,5-dimethylthiazol-2-yl)-5-(3-carboxymethoxyphenyl)-2-(4-sulfophenyl)-2H-tetrazolium [MTS] analyses, respectively. The latter has been used to quantify cell survival. […] The preparations for both assays were then spectrophotometrically measured at 490 nm using a 96-well plate reader (Mode 550, Bio-Rad). Neuronal cell death was morphologically determined based on the integrity of the cell soma and continuity of neuronal processes. […]

[3] = tested on: mixed cortical and striatal neurons; assay: LDH analysis (cell membrane leakage) of neurons insulted with anticancer drugs; type: cell-based; conditions: MTX 100 μM, 5-FU 25 μM, CDDP 3.5 μM
Description: Neuronal Cell Culture. Mixed cortical and striatal neurons from embryonic day 17 male Sprague-Dawley rats (tissue obtained from NIH) were seeded into poly-D-lysine coated 96-well plates at density of 50,000 cells/well and initially cultured at 37° C., 5% CO2, in neurobasal medium (NB) with B27 supplement (Invitrogen) containing full strength of AOs to obtain highly enriched (95%) neurons. Since AOs, including vitamin E, vitamin E acetate, superoxide dismutase (SOD), catalase (CAT), and GSH, are additives to culture medium, reduction of AO concentration in culture medium provides an approach to determine the level of OS involvement in a neurotoxic process. […]
as §4

[4] = tested on: mouse liver cancer cell line BNLT3; assay: MTS analysis of BNLT3 cancer cells; type: cell-based; conditions: BNLT3, 3 days, 10 μM PAN-811 or both
Description: as §1, §2
as §3, with “The preparations were incubated at 37° C. for 2 hours.” left out, “The change in number of cancer cells was judged directly by cell density. Cells were photographed under an inverted phase contrast microscope (IX 70, Olympus) using 10× or 20× objective.” left out
Data Analysis. Data were generated from 4-6 replicate wells, expressed as mean±standard deviation (SD), and statistically evaluated at a significance level of 1% with one factor ANOVA or Student's t-test by using software […] […]

[5] = tested on: hydrogen peroxide-induced LDH release; conditions: PAN-811 at 10 μM; compared with untreated and H2O2-insulted group; cited from earlier work
[6] = tested on: MCAo infarct formation, brain edema, mortality; conditions: single i.v. bolus, 2 mg/kg, two-hour MCAo; cited from earlier work
[7] = 25 μM 5-FU, 10 μM PAN-811 or cotreatment, FIG. 5(f)
[8] = 3.5 μM CDDP, 10 μM PAN-811 or both, FIG. 5(g)
[9] = 100 μM MTX or 10 μM PAN-811, FIG. 5(e)

Structure (SMILES) | increase in LDH reading in the culture supernatant [1, 7] [%] | reduction of MTS reading [2] [%] | LDH increase in culture supernatant (cell membrane leakage) ([3]; neurons in 25% AO, 3 days, FIG. 1(c)) | increase in LDH reading ([3]; neurons, 12.5% AO condition, FIG. 2(b)) | increase in LDH reading in the culture supernatant [1, 8] [%] | reduction of MTS reading ([4]; 3.5 μM CDDP, FIG. 4(f)) [%] | increase in LDH reading in the culture supernatant [1, 9] [%] | maximal protection against hydrogen peroxide-induced LDH release [5] [%] | maximal protection (reduction of infarct volume) [6] [%] | reduction of MTS reading ([4]; 100 μM MTX, FIG. 4(d))
O=c1[nH]cc(F)c(=O)[nH]1 [5-FU, 5-fluorouracil] | 124 | – | – | – | – | – | – | – | – | –
N.N.[Cl][Pt][Cl] [CDDP] | – | 22 | significant LDH increase | significant increases in LDH reading | 71 | 44 | – | – | – | –
CN(Cc1cnc2nc(N)nc(N)c2n1)c1ccc(C(=O)N[C@@H](CCC(=O)O)C(=O)O)cc1 [MTX, methotrexate] | – | – | – | – | – | – | 95 | – | – | –
NC(=S)N/N=C/c1ncccc1N [PAN-811, 3-aminopyridine-2-carboxaldehyde thiosemicarbazone] | 30 | – | – | – | 30 | 94 | 31 | 90 | 50 | the same level as MTX

Source: patent publication US10576069B2, “Treatment for chemotherapy-induced cognitive impairment” (Panacea Pharmaceutical Inc., priority 2013, dated 2020)
